Test [1] relates to cellules tumorales mammaires MCF-7. The test can be described thus: Antiproliferative activity on growth of MCF-7 mammary tumour cells (DNA assay with DABA fluorimetry). The test is classed as cell-based. The following applies: 10⁻⁵M; end of experiment J6; SVF medium; inhibition of DNA increase. The procedure:
(§1) L'activité de la 1-(3'-trifluorométhyl 4'-nitrophényl) 4,4-diméthyl imidazoline 2,5-dione a été déterminée par la mesure de son activité antiproliférative sur la croissance de cellules tumorales mammaires MCF-7 et T 47-D.
(§2) Les lignées MCF-7 et T 47-D sont maintenues en culture en milieu SVF (1) à 37 °C en atmosphère humide contenant 5% CO₂. Les cellules à subconfluence sont récoltées par trypsination (trypsine 0,05%, EDTA 0,02%) puis rincées par centrifugation douce. Un échantillon des cellules en suspension est compté sur cellule de Malassez.
(§3) Les cellules resuspendues dans le milieu SVF sont ensemencées à raison de 30.000 cellules par puits dans des plaques multipuits (24 puits de 2,5 cm2). […]
(§4) L'ADN est dosé par une méthode fluorimétrique utilisant le DABA (Acide 3,5 diaminobenzoïque) (2) 150 microlitres de DABA sont ajoutés dans chaque puits; les plaques sont alors incubées 45 mn à 56°C, puis 1,5 ml d'HCl 1N sont ajoutés. La fluorescence est mesurée à l'aide de fluorimètre (longueur excitatrice : 400 nm, longueur d'onde d'émission : 500 nm). La quantité d'ADN par puits est évaluée par rapport à une gamme étalon obtenue en traitant dans les mêmes conditions un standard d'ADN du thymus de veau.

Test [2] has as its system cellules tumorales mammaires T 47-D. The test can be described thus: Antiproliferative activity on growth of T 47-D mammary tumour cells (DNA assay with DABA fluorimetry). The test is classed as cell-based. The following applies: 10⁻⁵M; end of experiment J12; SVF medium; inhibition of DNA increase. The method, then: as §1, §2, §3, §4

Take `CC1(C)NC(=O)N(c2ccc([N+](=O)[O-])c(C(F)(F)F)c2)C1=O` [1-(3'trifluorométhyl 4'-nitrophényl) 4,4-diméthyl imidazoline 2,5-dione]: the “inhibe la croissance des cellules MCF-7” value in test [1] is 30%. The “inhibe la croissance des cellules T 47-D” value in test [2] is recorded as 30%.

The record behind these values is patent publication EP0301034B1, “USE OF 1-(3'TRIFLUOROMETHYL 4'-NITROPHENYL) 4,4-DIMETHYL IMIDAZOLINE 2, 5-DIONE IN THE MANUFACTURE OF A MEDICAMENT FOR THE TREATMENT OF HORMONE-DEPENDENT CANCERS OTHER THAN CANCERS OF THE PROSTATE, THE SKIN AND THE COLON” (ROUSSEL-UCLAF, priority 1986, dated 1988).
